Patent publication US9776963B2, “Small molecule CD4 mimetics and uses thereof” (priority 2008, dated 2017)
Several values for one entry are separate records, joined by “and”; a condition that tells them apart may be missing. Equal values may be shown once. Read-outs that look alike come from different tables or passages of the source.

Columns and labels:
[1] = target: T1, w.t. HIV-1 YU2 gp120 glycoprotein (Human immunodeficiency virus type 1 group M subtype B, UniProt P35961); experiment: biochemical; format: binding; conditions: for Kd: w.t. gp120, ITC, 25° C.
T1 construct: (His)6 (C); made in house; host or cells: 293F cells

[2] = tested on: recombinant HIV with the w.t. HIVYU2 envelope glycoproteins; experiment: microbe, parasite or virus in culture; format: cell-based; conditions: for IC50: w.t. YU2 envelope glycoproteins; for inhibition of HIV infection of cells expressing CD4 and CCR5 (in words): specificity versus A-MLV control
D368A mutant viruses = format: cell-based; conditions: D368A envelope, CD4-CCR5+ target cells
[3] = target: T2, HIV-1 YU2 gp120 glycoprotein S375A (Human immunodeficiency virus type 1 group M subtype B, UniProt P35961, S370A); experiment: biochemical; format: binding
T2 construct: (His)6 (C); made in house; host or cells: 293F cells

[4] = target: T3, HIV-1 YU2 gp120 glycoprotein V430A (Human immunodeficiency virus type 1 group M subtype B, UniProt P35961, V417A); experiment: biochemical; format: binding
T3 construct: (His)6 (C); made in house; host or cells: 293F cells

[5] = tested on: viruses with HXBc2 or KB9 Env gps
Description: The envelope glycoproteins were derived from CCR5-using (R5) primary HIV isolates (YU2 and ADA), dual-tropic (R5×4) primary isolates (89.6 and KB9) and, as a control, the amphotropic murine leukemia virus (A-MLV).

[6] = target: T4, HIV-1 YU2 gp120 glycoprotein D368A (Human immunodeficiency virus type 1 group M subtype B, UniProt P35961, D363A); experiment: biochemical; format: binding
T4 construct: (His)6 (C); made in house; host or cells: 293F cells

[7] = tested on: viruses with the S375W envelope glycoproteins; format: cell-based; conditions: Cf2Th-CCR5 cells
[8] = tested on: viruses with gp120 Glu 429 replaced with lysine; format: cell-based
[9] = tested on: recombinant HIV with the wild-type HIVYU2 envelope glycoproteins; format: cell-based; conditions: w.t. YU2 envelope
[10] = target: T5, HIV-1 YU2 gp120 glycoprotein D368A/S375A (Human immunodeficiency virus type 1 group M subtype B, UniProt P35961, D363A/S370A); experiment: biochemical; format: binding
T5 construct: (His)6 (C); made in house; host or cells: 293F cells

[11] = tested on: viruses with gp120 Glu 429 replaced with alanine; format: cell-based
HXBc2 gp120 = target: T6, HXBc2 gp120 (Human immunodeficiency virus type 1 group M subtype B, UniProt P04578); experiment: Compound binding assay with [3H]-NBD-556, HXBc2 gp120; design: species or system HIV
T6 construct: (His)6 (C); made in house; host or cells: 293F cells

[12] = tested on: viruses with the S375A change; format: cell-based; conditions: S375A envelope, compared with w.t.
[13] = NBD-556 compared with NBD-557
[14] = Human immunodeficiency virus 1, Cf2Th-CD4/CCR5, Cf2Th-CD4/CCR5 cells

Row | Compound | gp120 binding / affinity (in words) [1] | inhibition of HIV infection of cells expressing CD4 and CCR5 (in words) [2] | enhancement of infectivity (in words) (D368A mutant viruses) | enhancement of infection (in words) [7] | activation of infection (in words) [8] | virus activation (in words) [11] | other results
1 | CC1(C)CC(NC(=O)C(=O)Nc2ccc(Cl)c(Cl)c2)CC(C)(C)N1 [V] | better gp120 binding than NBD-556 or NBD-557 | – | – | – | – | – | –
2 | CN1C(C)(C)CC(NC(=O)C(=O)Nc2ccc(Cl)c(F)c2)CC1(C)C [Compound III] | increases affinity for gp120 | lowers the IC50, while maintaining specificity for HIV-1 | – | – | – | – | Kd [1]: 330 nM; IC50 [2, 14]: 75000 nM
3 | CC1(C)CC(NC(=O)C(=O)Nc2ccc(Cl)c(F)c2)CC(C)(C)N1 [Compound II, N1-(4-Chloro-3-fluorophenyl)-N2-(2,2,6,6-tetramethylpiperidin-4-yl)oxalamide] | highest affinity for gp120 | specifically inhibited HIVYU2 infection | enhanced | did not activate the entry | eliminated the activation of infection | significantly diminished | Kd [3]: 140 nM; Kd [4]: 1000 nM; infection of CD4-CXCR4+ cells (in words) [5]: neither of these Env gps supported infection; gp120 binding / affinity (in words) ([1]; listed as compound II): better gp120 binding than NBD-556 or NBD-557; Kd [1]: 800 nM; Kd [6]: 720 nM; IC50 ([2]; Cf2Th-CD4/CCR5 cells): 54000 nM; IC50 [2, 14]: 90000 nM; enhancement of HIV infection of CD4-CCR5+ cells (in words) [9]: most potent stimulation of HIV infection; enhancement of HIV infection of CD4-CCR5+ cells (in words) ([9]; listed as compound II): only compound II activated HIV infection; Kd [10]: 83 nM
4 | CC1(C)CC(NC(=O)C(=O)Nc2ccc(Cl)c(F)c2)CC(C)(C)N1CCCO [XVII] | – | efficient and specific inhibition of HIV-1 | – | – | – | – | –
5 | CC1(C)CC(NC(=O)C(=O)Nc2ccc(Cl)c(F)c2)CC(C)(C)N1Cc1cn(CCCCCO)nn1 [XVI] | – | efficient and specific inhibition of HIV-1 | – | – | – | – | –
6 | NBD-556 | – | – | enhanced | not enhanced | eliminated the activation of infection | less disruptive | direct binding of 3H-labeled compound (in words) (HXBc2 gp120): only moderately; enhancement of infection (in words) [12]: greater enhancement; infection of CD4-CXCR4+ cells (in words) [5]: did not enhance the entry; IC50 ([2]; Cf2Th-CD4/CCR5 cells): > 100000 nM and 100000 nM; solubility (in words) [13]: better solubility
7 | COC(=O)CCCn1cc(CN2C(C)(C)CC(NC(=O)C(=O)Nc3ccc(Cl)c(F)c3)CC2(C)C)nn1 [XVIII] | – | efficient and specific inhibition of HIV-1 | – | – | – | – | –
8 | CC1(C)CC(NC(=O)C(=O)Nc2ccc(Br)cc2)CC(C)(C)N1 [NBD-557] | comparably to NBD-556 | – | not enhanced | did not activate the entry | eliminated the activation of infection | significantly diminished | enhancement of HIV infection of CD4-CCR5+ cells (in words) [9]: comparably to NBD-556
